Data as given in paper PMC9686568, “Novel Alligator Cathelicidin As-CATH8 Demonstrates Anti-Infective Activity against Clinically Relevant and Crocodylian Bacterial Pathogens” (Antibiotics, 2022).
Where two headings read alike, the source gives them in different places.

Columns and labels:
[1] = tested on: S. aureus; experiment: MIC, broth microdilution in MHB; type: cell-based
Procedure: (§1) The following bacterial pathogens were used in this study: S. enterica subsp. enterica serovar Typhimurium ATCC 14028, E. coli O157:H7 [83], the clinical isolates S. aureus SAP0017 [84] and USA300 LAC [85], E. faecium #1-1 [85], A. baumannii Ab5075 [85] and E. cloacae 218R1 [85], as well as P. aeruginosa PAO1 [34], P. vulgaris HSC7200-T2 (Hancock Lab strain collection) and K. pneumoniae KPLN49 [85].
(§2) Overnight cultures were grown in LB at 37 °C with shaking at 250 rpm, except for E. faecium, which was grown in BHI medium.
(§3) The antimicrobial activity of the crocCATHs was evaluated with the broth microdilution method as described previously. MIC was defined as the first peptide or antibiotic concentration without visible bacterial growth. Reported values are the statistical mode of at least three independent experiments.

[2] = tested on: E. faecium; experiment: MIC, broth microdilution in MHB; type: cell-based, E. faecium #1-1
Procedure: as §1, §2, §3

[3] = tested on: S. aureus SAP0017 biofilms; experiment: Biofilm-killing assay; type: cell-based; details: S. aureus 24 h biofilms, 64 × MIC
Procedure: (§4) Biofilm-killing assays were set up like the biofilm inhibition assays previously described. […] Plates were incubated at 37 °C and bacterial biomass was scraped out of the wells with cotton swabs at 0, 0.5, 1, 2 and 20 h after treatment. Cotton tips were placed in 1 mL of LB and sonicated for 5 min, and bacterial numbers were determined by serial dilution and plating on LB agar.

[4] = tested on: S. aureus SAP0017 cytoplasmic membrane; experiment: Membrane depolarization (DiSC3(5)) and permeabilization (PI) assay with CFU enumeration; type: cell-based; details: S. aureus planktonic cells, 1 h treatment
[5] = tested on: linearized plasmid pET28a; experiment: Agarose gel electrophoretic mobility shift assay (DNA binding)
Procedure: To investigate the DNA binding capacity of As-CATH8, vancomycin and polymyxin B, an agarose gel electrophoretic mobility shift assay was performed as previously described. Briefly, overnight cultures of E. coli BL21 Star cells harboring the pET28a plasmid were grown in LB supplemented with kanamycin (30 μg/mL). The pET28a plasmid was purified using the QIAprep Spin Miniprep Kit (QIAGEN Inc., Hilden, Germany) and linearized with the SmaI endonuclease (Thermofisher Scientific, Waltham, MA, USA). Linear pET28a was purified from an agarose gel using the QIAquick Gel Extraction Kit (QIAGEN Inc., Hilden, Germany).
Twofold decreasing amounts of As-CATH8 or antibiotics were incubated for 1 h at room temperature with 100 ng of linear pET28a in 10 μL of binding buffer (5% glycerol, 10 mM Tris-HCl pH 8.0, 1 mM EDTA, 1 mM DTT, 20 mM KCl and 50 μg/mL BSA). After this, 2 μL of 6× DNA Loading Dye (Thermofisher Scientific, Waltham, MA, USA) was added and the mixture was loaded onto a 1% agarose gel in TAE buffer containing SYBR Safe (Thermofisher Scientific, Waltham, MA, USA). The gel was run at 100 V for 1 h and the GeneRuler 1 kb DNA ladder (Thermofisher Scientific, Waltham, MA, USA) was used as a molecular weight marker. Finally, the gel was imaged on a ChemiDoc Touch Imaging System (BioRad Laboratories, Montreal, QC, Canada).

[6] = cited from earlier work
Description: It is well-known that HDPs can interact with multiple extracellular and intracellular targets to exert their antimicrobial and antibiofilm effects. […] Although it seems likely that compromising the integrity of the membrane is a key component of the killing mechanism of As-CATH8, this may not always be a fatal event and additional or alternative activities might also play a significant role. Two main elements support this idea: first, maxim ...

[7] = tested on: E. cloacae; type: cell-based, E. cloacae 218R1; details: E. cloacae, microdilution in MHB
Procedure: as §1, §2, §3

[8] = tested on: K. pneumoniae; experiment: MIC, broth microdilution in MHB; type: cell-based, K. pneumoniae KPLN49
Procedure: as §1, §2, §3

[9] = tested on: A. baumannii; experiment: MIC, broth microdilution in MHB; type: cell-based, A. baumannii Ab5075
Procedure: as §1, §2, §3

[10] = tested on: P. aeruginosa; experiment: MIC, broth microdilution in MHB; type: cell-based, P. aeruginosa PAO1
Procedure: as §1, §2, §3

[11] = tested on: E. coli; type: cell-based, E. coli O157:H7; details: microdilution in MHB
Procedure: as §1, §2, §3

[12] = tested on: S. Typhimurium; type: cell-based, S. enterica subsp. enterica serovar Typhimurium ATCC 14028; details: S. Typhimurium, microdilution in MHB
Procedure: as §1, §2, §3

[13] = tested on: P. vulgaris; type: cell-based, P. vulgaris HSC7200-T2; details: microdilution in MHB
Procedure: as §1, §2, §3

[14] = tested on: planktonic A. baumannii; experiment: Planktonic time-kill assay; type: cell-based; details: ~5 × 10^5 CFU/mL in MHB, at the MIC, 37 °C
Procedure: The bactericidal activity of As-CATH8 and antibiotics was evaluated against planktonic S. aureus SAP0017 and A. baumannii cells under similar conditions to those used in the antimicrobial assays. Bacteria were grown overnight in LB media and diluted to ~5 × 10^5 CFU/mL in MHB. […] Samples were taken at 0, 0.5, 1, 2 and 20 h after treatment and CFU counts determined by serial dilution and plating on LB agar.

[15] = tested on: A. baumannii biofilms; experiment: Biofilm-killing assay; type: cell-based; details: A. baumannii 24 h biofilms, 10% TSB + 0.1% glucose, 64 × MIC
Procedure: as §4

[16] = tested on: A. baumannii cytoplasmic membrane; experiment: Membrane depolarization (DiSC3(5)) and permeabilization (PI) assay with CFU enumeration; type: cell-based; details: A. baumannii planktonic cells, 1 h treatment
Procedure: The cytoplasmic membrane depolarization and permeabilization activities of As-CATH8 compared to those of antibiotics (vancomycin or polymyxin B) were assessed against S. aureus SAP0017 and A. baumannii using the membrane-potential sensitive dye DiSC3(5) and the cell viability dye PI [36]. The membrane-permeabilizing peptide mastoparan was included as a positive control and water served as a negative (untreated) control.
Briefly, after growth in LB, mid-log phase bacteria were centrifuged and washed twice with 5 mM HEPES buffer supplemented with 20 mM glucose (HEPES-Gluc). Cell density was adjusted to ~10^7 CFU/mL in (HEPES-Gluc) supplemented with 0.1 M KCl. […] After incubation, 190 μL/well of the cultures were added to black opaque 96-well plates (Corning Inc.) and pre-treatment fluorescence was monitored every 2 min for a total of 10 min using a Synergy H1 Hybrid Multi-Mode Reader (BioTek, Winooski, VT, USA). […] After assessing that fluorescence values remained stable, bacteria were treated with 10 μL/well of peptide, antibiotic or water. Fluorescence was quantified 1 h after treatment under the same conditions and represented as a function of peptide concentration, subtracting the background of untreated cells.
To assess bacterial survival after treatment, supernatants from the fluorescence assays were serial diluted and plated for CFU enumeration. […]

[17] = first concentration without visible growth, mode of at least three independent experiments

CN[C@H](CC(C)C)C(=O)N[C@H]1C(=O)N[C@@H](CC(N)=O)C(=O)N[C@H]2C(=O)N[C@H]3C(=O)N[C@H](C(=O)N[C@H](C(=O)O)c4cc(O)cc(O)c4-c4cc3ccc4O)[C@H](O)c3ccc(c(Cl)c3)Oc3cc2cc(c3O[C@@H]2O[C@H](CO)[C@@H](O)[C@H](O)[C@H]2O[C@H]2C[C@](C)(N)[C@H](O)[C@H](C)O2)Oc2ccc(cc2Cl)[C@H]1O [Vancomycin, vancomycin]
MIC ([1]; Staphylococcus aureus, first concentration without visible growth, mode of at least three independent experiments): 0.5 µM
MIC ([1]; Staphylococcus aureus, value in brackets of Table S4): 0.7 µg/mL
MIC [1, 17]: 0.5 µM
MIC ([2]; Enterococcus faecium, first concentration without visible growth, mode of at least three independent experiments): > 64 µM
MIC ([2]; Enterococcus faecium, value in brackets of Table S4): > 93 µg/mL
MIC [2, 17]: > 64 µM
Effect on biofilms at 2 h, result in words ([3]; 2 h time point): modest effect
Effect on biofilms after 20 h, result in words ([3]; 20 h of treatment): potent activity
Membrane depolarization (DiSC3(5) fluorescence) and permeabilization (PI fluorescence), result in words [4]: almost no effect
Capacity for binding to DNA, result in words [5]: no
Net charge [6]: +1

polymyxin B
MIC [7, 17]: 0.5 µM
MIC ([7]; value in brackets of Table S4): 0.6 µg/mL
MIC [8, 17]: 0.5 µM
MIC ([8]; value in brackets of Table S4): 0.6 µg/mL
MIC [9, 17]: 0.5 µM
MIC ([9]; value in brackets of Table S4): 0.6 µg/mL
MIC [10, 17]: 0.5 µM
MIC ([10]; value in brackets of Table S4): 0.6 µg/mL
MIC [11, 17]: 0.5 µM
MIC ([11]; value in brackets of Table S4): 0.6 µg/mL
MIC [12, 17]: 1 µM
MIC ([12]; value in brackets of Table S4): 1.2 µg/mL
MIC [13, 17]: > 64 µM
MIC ([13]; value in brackets of Table S4): > 77 µg/mL
Time to complete killing of planktonic cells [14]: up to 20 h
Time to complete eradication of biofilms [15]: 20 h
Membrane depolarization (DiSC3(5) fluorescence) and permeabilization (PI fluorescence), result in words [16]: almost no effect
Capacity for binding to DNA, result in words [5]: weak
Net charge [6]: +5
